{"source": "patent US20090326008A1", "about": "“NF-kappa B Inhibitor” (priority 2006, published 2009)", "key": {"[1]": {"tested_on": "TNFα", "test": "Relative TNFα mRNA expression in IL-1β-stimulated MKN-45 cells (real-time PCR)", "type": "cell-based, human", "details": "IL-1β-stimulated DMSO-treated cells = 100%, ACTB reference", "procedure": "(§1) RNA was extracted from the cells used in Example 2 according to the manufacturer's protocol for ABI Prism 6100 Nucleic Acid PrepStation (a nucleic acid isolation system, product of Applied Biosystems). More specifically, after removal of the culture supernatant and washing with 1 mL of PBS, 250 μL of Nucleic Acid Purification Lysis Solution (Part No. 4305895, Applied Biosystems) was added, and then agitated using a shaker for 2 to 3 minutes. The Lysis Solution containing the cell lysate was collected, and the total amount was transferred to the wells of RNA Purification Tray (Part No. 4305673, Applied Biosystems), which had been pre-wet with 40 μL of Nucleic Acid Purification Wash Solution I (Part No. 4305891, Applied Biosystems) beforehand. Aspiration (20% pressure) was performed for 2 minutes to adsorb the sample onto the RNA Purification Tray, followed by sequentially adding and aspirating (20% pressure, 2 min.) 500 μL of Wash Solution I, Nucleic Acid Purification (Part No. 4305891, Applied Biosystems), 400 μL of Wash Solution II, Nucleic Acid Purification (Part No. 4305890, product of Applied Biosystems), 400 μL of the Wash Solution II, and 300 μL of the Wash Solution II in that order. Aspiration (90% pressure) was performed for 5 minutes to remove the water content from the RNA Purification Trays. After addition of 150 μL of Elution Solution, Nucleic Acid Purification (Part No. 4305893, product of Applied Biosystems), aspiration (20% pressure) was performed for 2 minutes, while collecting the outflow. This was used as collected RNA solution.\n(§2) Absorbance of the collected RNA solution at 260 nm was measured using a microplate spectrophotometer (“SpectraMax Plus”, product of Molecular Devices) with an analysis software (“SOFTmaxPRO ver.3.1.2”, product of Molecular Devices), and the RNA concentration was determined from the absorbance. Likewise, absorbance at 280 nm was measured and the purity of the RNA was determined using the analysis software.\n(§3) cDNA was synthesized according to the manufacturer's protocol for TaqMan® Reverse Transcription Reagents (Part No. N808-0234, product of Applied Biosystems). More specifically, about 0.5 μg of RNA, 2.5 μL of 10×RT buffer, 5.5 μL of MgCl2 solution, 5 μL of dNTP mixture, 1.25 μL of random hexamer (primers), 0.5 μL of RNase inhibitor, and 0.63 μL of MultiScribe Reverse Transcriptase (product of Applied Biosystems) were added to each collected RNA sample in a tube, and DEPC-treated water was added to make a total volume of 25 μL and stirred. A reaction consisting of 25° C. for 10 minutes, 48° C. for 30 minutes, and 95° C. for 5 minutes was performed using a PCR thermal cycler (“TaKaRa PCR Thermal Cycler Dice”, product of Takara Bio Inc.) to prepare a cDNA solution.\n(§4) PCR was performed according to the manufacturer's protocol for TaqMan® Gene Expression Assays (product of Applied Biosystems). More specifically, 5 μL of TaqMan® Fast Universal PCR Master Mix (product of Applied Biosystems), 0.5 μL of TaqMan® Gene Expression Assays for the target gene (gene-specific probe and primer sets, product of Applied Biosystems), and 4.5 μL of the above-obtained cDNA solution were added to each sample and stirred. A PCR reaction consisting of heating at 95° C. for 20 seconds, followed by 40 cycles consisting of heating at 95° C. for 3 seconds and annealing and extension at 60° C. for 30 seconds was performed using a real-time PCR device (“Applied Biosystems 7500 Real-Time PCR System”) with SDS v1.4 Software (product of Applied Biosystems). Threshold cycle (Ct) values were calculated using the software.\n(§5) The Assay IDs of the TaqMan® Gene Expression Assays for the target genes used are as follows:\n(§6) The expression level of each gene was determined according to the following formula using the level of ACTB as a reference standard.\n(§7) (Relative mRNA expression level)=2̂−{(Ct value of the target gene)−(Ct value of ACTB)} […]"}, "[2]": {"tested_on": "COX2", "test": "Relative COX2 mRNA expression in IL-1β-stimulated MKN-45 cells (real-time PCR)", "type": "cell-based, human", "details": "IL-1β-stimulated DMSO-treated cells = 100%, ACTB reference", "procedure": "as §1, §2, §3, §4, §5, §6, §7"}}, "data": [{"smiles": "COc1ccc(CC2SC(=S)NC2=O)c2c1N(CCC(C)C)C(=O)CC2", "note": "(centres unmarked) [Test Compound 965]", "values": [{"measurement": "TNFa relative mRNA expression level, Mean", "setting": "[1]", "value": 63.0, "unit": "%"}, {"measurement": "COX2 relative mRNA expression level, Mean", "setting": "[2]", "value": 37.6, "unit": "%"}]}]}
